Holding throughout (type): cell-based
The subject of one assay is IL-4. Put plainly: Cytokine production (IL-4) from KLH-stimulated mouse lymph node cells, ELISA. The settings on record: 4 days; for IC50: Mus musculus, 96 h, lymph node cells of KLH-sensitized BALB/c mice, KLH 0.1 mg/ml, read-out: IL-4 inhibition activity IC50; for production of IL-4: Test 3, KLH-stimulated mouse lymph node cells. The method, then:
(§1) Activity on Cytokines Production from Mouse Lymph Node Cells by Compounds of Working Examples
(§2) BALB/c mice were purchased from Japan Charlse River (Yokohama) and 8 weeks female mice were used.
(§3) D-MEM (High Glucose) medium (Nikken Biomedical Research Lab. (Kyoto), Code No. CM4402) supplemented with 20% heat-inactivated (56° C., 30 min.) fetal bovine serum (Characterized, Code No. A-1115-L, HyClone Lab., Logan, Utah), 50 μM 2-mercaptoethanol (Sigma, St. Louis, Mo., Code No. M-6250), 100 unit/ml penicillin and 100 μg/ml streptomycin (Penicillin-Streptomycin, Bibco-BRL, Code No. 15140-122) were used for the assay.
Each test compound dissolved in DMSO (Nacalai Tesque (Kyoto) code No. 11J) at a concentration of 100 mM was diluted to final concentration with the medium.
KLH (0.2 mg) was subcutaneously administered to mouse foot with Freund's complete adjuvant (Difco Lab., Detroit, Mich., Code No. 3113-60-5). Eight days later popliteal lymph node was picked up and its cell suspension was prepared.
(§4) KLH (0.1 mg/ml) and the test compound were added to lymph node cells (2.5×10^6 cells/ml) and the mixture was incubated at 37° C. under 5% CO2 for 4 days (Corning 25850, 0.15 ml/well). Then, amount of cytokine produced in the supernatant was measured by ELISA specific to cytokine.
(§5) Amounts of interleukin 4 (IL-4) and interleukin 5 (IL-5) as a typical Th2 type cytokine, and amount of interferon γ (IFN-γ) as a typical Th1 type cytokine were measured.
Amount of IL-4 was measured by ELISA as mentioned below. A rat anti-mouse IL-4 antibody (Pharmingen, San Diego, Calif., Code No. 18031D, 0.5 mg/ml) as a primary antibody was diluted 250 times with hydrogen carbonate buffer, and it was inoculated to the 96-well plate (Falcon 3912, Becton Dickinson and Company, Flanklin Lakes, N.J.) (50μ/well) and each well was coated at 4° C. overnight. Then the plate was blocked with PBS (−) solution (phosphate-buffered saline without calcium chloride and magnesium chloride) containing 3% BSA (200 μl/well). After rinsing the plate three times with PBS (−) solution containing 0.05% polyoxyethylene solbitan monolaurate (Tween 20™, Nacalai Tesque (Kyoto) Code No. 281-51) (PBST), the supernatant of the culture medium was added to the wells (50 μl/well) and incubated at room temperature for 4 hours. Recombinant mouse IL-4 (Pharmingen, Code No. 19231W) was used for preparing a calibration curve.
After rinsing the plate three times with PBST, a rat anti-mouse IL-4 antibody labeled by biotin (Pharmingen, Code No. 18042D, 0.5 mg/ml) as a secondary antibody, which was diluted 500 times with PBS (−) solution containing 0.1% BSA, was poured into wells (100 μl/well). The plate was incubated at room temperature for one hour. The secondary antibody bound to the plate was detected with streptoabidin alkaliphosphatase (Kirkegaad & Perry Lab., Gaithersburg, Md., Code No. 15-30-00) (0.25 μg/ml, 100 μl/well). After incubation of the plate at 37° C. for one hour and rinsing the plate three times with PBST, the coloring was done by adding PNPP substrate (p-nitrophenyl disodium phosphate substrate (Nacalai Tesque) (1 mg/ml, 100 μl/well)). The absorption at 415 nm was measured by a microplate reader (MTP-120 Microplate reader, Corona Electric Co.)
In the same manner as in Test 1, each test compound dissolved in DMSO (Nacalai Tesque (Kyoto) code No. 11J) at a concentration of 100 mM was diluted to final concentration with the medium. Sensitization and preparation of lymph node cells, production of cytokine by stimulation with an antigen and measurement of amounts of cytokines were conducted in the same method as in Test 1.
By measuring inhibition rate of production of IL-4 at various concentrations of each test compound and using a graph relating to the compound concentration and the inhibition rate, 50% inhibition concentration (IC50) on each test compound was calculated.
For orientation: An ELISA detects its analyte on a solid surface through an enzyme-linked reagent.

The test system of another assay is IL-5. Put plainly: Cytokine production (IL-5) from KLH-stimulated mouse lymph node cells, ELISA. The settings on record: Test 3, 4 days. The method, then: as §1, §2, §3
(§6) Each test compound dissolved in DMSO (Nacalai Tesque (Kyoto) code No. 11J) at a concentration of 100 mM was diluted to final concentration with the medium. […]
as §4, §5
(§7) Amount of IL-4 was measured by ELISA as mentioned below. […]

In a further assay the test system is IFN-γ. The experiment in a line: Cytokine production (IFN-γ) from KLH-stimulated mouse lymph node cells, ELISA. The settings on record: Test 3, 4 days. Here is the method:
as §1, §2, §3, §6, §4, §5, §7

Like-named read-outs stand apart in the source and are kept apart here.

As to `CCOC(=O)CNc1nc(N)nc2c1CCCC2` [Example 1, Ethyl-2-[(2-amino-5,6,7,8-tetrahydroquinazoline-4-yl)amino]acetate], the IC50 in the assay with IL-4 (Test 2, Table 1) is 0.6 µg/mL.
`Nc1nc2c(c(NCC3CCCCC3)n1)CCCC2` [Example 2, N-(2-Amino-5,6,7,8-tetrahydroquinazoline-4-yl)-N-(cyclohexylmethyl)amine]: the IC50 in the assay on IL-4 (Test 2, Table 1) turned out to be 0.6 µg/mL.
Take `CCOC(=O)C(CC(C)C)Nc1nc(N)nc2c1CCCC2` (stereo not drawn) [Example 3, Ethyl-2-[(2-amino-5,6,7,8-tetrahydroquinazoline-4-yl)amino]-4-methylpentanoate]: the IC50 in the assay with IL-4 (Test 2, Table 1) is 0.5 µg/mL.
`CCOCCNc1nc(N)nc2c1CCCC2` [Example 4, N-(2-Amino-5,6,7,8-tetrahydroquinazoline-4-yl)-N-(2-ethoxyethyl)amine]: the IC50 in the assay on IL-4 (Test 2, Table 1) amounted to 3 µg/mL.
`CCCCNc1nc(N)nc2c1CCCC2` [Example 5, N-(2-Amino-5,6,7,8-tetrahydroquinazoline-4-yl)-N-butylamine]: the concentration for half-maximal inhibition (IC50) in the assay with IL-4 (Test 2, Table 1) amounted to 0.2 µg/mL.
With `CCCCCCNc1nc(N)nc2c1CCCC2` [Example 6, N-(2-Amino-5,6,7,8-tetrahydroquinazoline-4-yl)-N-hexylamine], in the assay on IL-4 (Test 2, Table 1), the IC50 amounted to 1 µg/mL.
As to `CCOC(=O)C(C)Nc1nc(N)nc2c1CCCC2` (stereo not drawn) [Example 7, Ethyl 2-[(2-amino-5,6,7,8-tetrahydroquinazoline-4-yl)amino]propanoate], the half-inhibitory concentration (IC50) in the assay with IL-4 (Test 2, Table 1) turned out to be 0.5 µg/mL.
As to `CCOC(=O)C(CO)Nc1nc(N)nc2c1CCCC2` (stereo not drawn) [Example 8, Ethyl 2-[(2-amino-5,6,7,8-tetrahydroquinazoline-4-yl)amino]-3-hydroxypropanoate], the IC50 with IL-4 (Test 2, Table 1) is 1 µg/mL.
Consider `CCCCC(Nc1nc(N)nc2c1CCCC2)C(=O)OC` (stereo not drawn) [Example 9, Methyl 2-[(2-amino-5,6,7,8-tetrahydroquinazoline-4-yl)amino)hexanoate], for which the IC50 in the assay on IL-4 (Test 2, Table 1) came out at 1 µg/mL.
On to `CCCCC(CO)Nc1nc(N)nc2c1CCCC2` (stereo not drawn) [Example 10, 2-[(2-Amino-5,6,7,8-tetrahydroquinazoline-4-yl)amino]hexane-1-ol], for which the IC50 with IL-4 (Test 2, Table 1) was determined as 0.1 µg/mL.
With `CCCC(O)CNc1nc(N)nc2c1CCCC2` (stereo not drawn) [Example 11, 1-[(2-Amino-5,6,7,8-tetrahydroquinazoline-4-yl)amino]pentane-2-ol], the IC50 in the assay on IL-4 (Test 2, Table 1) worked out at 0.1 µg/mL.
As to `CCCC(=O)CNc1nc(N)nc2c1CCCC2` [Example 12, 1-[(2-Amino-5,6,7,8-tetrahydroquinazoline-4-yl)amino]pentane-2-one], the IC50 with IL-4 (Test 2, Table 1) turned out to be 1 µg/mL.
For the molecule `Nc1nc2c(c(NCC3CCCO3)n1)CCCC2` (stereo not drawn) [Example 13, N-(2-Amino-5,6,7,8-tetrahydroquinazoline-4-yl)-N-(tetrahydorofuran-2-ylmethyl)amine], the IC50 in the assay with IL-4 (Test 2, Table 1) stood at 10 µg/mL.
For `CCCCCNc1nc(N)nc(C)c1CCCC` [Example 14, N-(2-Amino-5-butyl-6-methylpyrimidine-4-yl)-N-pentylamine], the IC50 in the assay on IL-4 (Test 2, Table 1) was determined as 0.1 µg/mL.
Still for that read-out and setting: to `CCCCCCc1c(C)nc(N)nc1NCCCCC` [Example 15, N-(2-Amino-5-hexyl-6-methylpyrimidine-4-yl)-N-pentylamine] belongs 0.4 µg/mL.
Regarding `CCCCCNc1nc(N)nc2c1COCC2` [Example 16, N-(2-Amino-7,8-dihydro-5H-pyrano[4,3-d]pyrimidine-4-yl)-N-pentylamine], in the assay with IL-4 (Test 2, Table 1), the IC50 is 3 µg/mL.
For `CCCCCNc1nc(N)nc(CCCC)c1C` [Example 17, N-(2-Amino-6-butyl-5-methylpyrimidine-4-yl)-N-pentylamine], the IC50 with IL-4 (Test 2, Table 1) was found to be 5 µg/mL.
Consider `CCCCCNc1nc(N)nc(C)c1C` [Example 18, N-(2-Amino-5,6-dimethylpyrimidine-4-yl)-N-pentylamine], for which, in the assay on IL-4 (Test 2, Table 1), the half-maximal inhibitory concentration (IC50) came out at 0.3 µg/mL.
Take `CCCCCNc1nc(N)nc2c1CCCC2` [Example 19, N-(2-Amino-5,6,7,8-tetrahydroquinazoline-4-yl)-N-pentylamine]: in the assay with IL-4 (Test 2, Table 1), the IC50 amounted to 0.2 µg/mL.
Regarding `CCCCCNc1nc(N)nc2c1CCC2` [Example 20, N-(2-Amino-6,7-dihydro-5H-cyclopenta[d]pyrimidine-4-yl)-N-pentylamine], the IC50 with IL-4 (Test 2, Table 1) was 0.3 µg/mL.
`CCCCC(Nc1nc(N)nc2c1CCCC2)C(N)=O` (stereo not drawn) [Example 21]: in the assay with IL-4 (Test 2, Table 1), the IC50 turned out to be 0.5 µg/mL.
For the molecule `CCCCCNc1nc(N)nc(C)c1CCOC` [Example 22, N-(2-Amino-5-(2-methoxyethyl)-6-methylpyrimidine-4-yl)-N-pentylamine], the IC50 in the assay with IL-4 (Test 2, Table 1) came out at 0.5 µg/mL.
`CCCCCNc1nc(N)nc(C)c1CCC#N` [Example 23, 3-[2-Amino-4-methyl-6-(pentylamino)pyrimidine-5-yl]propanenitrile]: the IC50 in the assay with IL-4 (Test 2, Table 1) came to 0.5 µg/mL.
Consider `CCCCCNc1nc(N)nc(C)c1CC` [Example 24, N-[2-Amino-5-ethyl-6-methylpyrimidine-4-yl)-N-pentylamine], for which the IC50 in the assay with IL-4 (Test 2, Table 1) was 0.2 µg/mL.
In the case of `CCCCc1c(C)nc(N)nc1NCC(O)CCC` (stereo not drawn) [Example 25, 1-[(2-Amino-5-butyl-6-methylpyrimidine-4-yl)amino]pentane-2-ol], the IC50 in the assay on IL-4 (Test 2, Table 1) amounted to 0.1 µg/mL.
Turning to `CCCCCNc1nc(N)nc(C)c1Cc1ccccc1` [Example 26, N-(2-Amino-5-benzyl-6-methylpyrimidine-4-yl)-N-pentylamine], in the assay on IL-4 (Test 4, Table 2), the IC50 was 0.5 µg/mL. Further, in the assay with IL-4, the “production of IL-4” value is “inhibit the production”. Besides, the “production of IL-5” value in the assay on IL-5 is “inhibit the production”. Further, in the assay on IFN-γ, the “production of IFN-γ” value was “enhance the production”.
On to `CCCCCNc1nc(N)ncc1Cc1ccccc1` [Example 27, N-(2-Amino-5-benzylpyrimidine-4-yl)-N-pentylamine], for which, in the assay on IL-4 (Test 4, Table 2), the IC50 was 1 µg/mL. For the same molecule, the “production of IL-4” value with IL-4 is listed as “inhibit the production”. For the same molecule, in the assay on IL-5, the “production of IL-5” value is “inhibit the production”. Moreover, in the assay on IFN-γ, the “production of IFN-γ” value is listed as “enhance the production”.

By IC50 is commonly meant the point on the concentration scale where inhibition reaches its midpoint.

(Values after patent US6951866B2, “Bicyclic pyrimidine compounds and therapeutic use thereof” (Sumitomo Pharmaceuticals Company, Limited, priority 1998, dated 2005).)
